The structures appear in SMILES notation.

What all share (assay): in vitro HDAC inhibition assay (fluorescence)
Common to all, as to format: biochemical

In one experiment the target is HDAC9 (Homo sapiens, UniProt Q9UKV0). Conditions: for inhibition at 100 µM: read-out: Percentage Inhibition HDAC9. The procedure: (§1) Briefly, all of the compounds are dissolved in DMSO. A series of dilutions of the compounds were prepared with 10% DMSO in HDAC assay buffer and 5 μl of the dilution was added to a 50 μl reaction so that the final concentration of DMSO is 1% in all of reactions. The compounds were pre-incubated in duplicate at RT for 1 hour in a mixture containing HDAC assay buffer, 5 μg BSA, HDAC enzyme (see Table 7) and a the particular HDACi. After 1 hour, the enzymatic reactions were initiated by the addition of HDAC substrate (BPS Bioscience) to a final concentration of 10 μM or 2 μM. The enzymatic reaction proceeded for 30 minutes at 37° C.
(§2) HDAC activity assays were performed in duplicates at each concentration. The fluorescent intensity data were analyzed using the computer software, Graphpad Prism. In the absence of the compound, the fluorescent intensity (Ft) in each data set was defined as 100% activity. In the absence of HDAC, the fluorescent intensity (Fb) in each data set was defined as 0% activity. The percent activity in the presence of each compound was calculated according to the following equation: % activity=(F−Fb)/(Ft−Fb), where F=the fluorescent intensity in the presence of the compound.
(§3) The values of % activity versus a series of compound concentrations were then plotted using non-linear regression analysis of Sigmoidal dose-response curve generated with the equation Y=B+(T−B)/1+10^((Log EC50-X)×Hill Slope), where Y=percent activity, B=minimum percent activity, T=maximum percent activity, X=logarithm of compound and Hill Slope=slope factor or Hill coefficient. The IC50 value was determined by the concentration causing a half-maximal percent activity.

In another experiment the target is T1, HDAC11 (Homo sapiens, UniProt Q96DB2).
T1 sequence (Q96DB2 1-347): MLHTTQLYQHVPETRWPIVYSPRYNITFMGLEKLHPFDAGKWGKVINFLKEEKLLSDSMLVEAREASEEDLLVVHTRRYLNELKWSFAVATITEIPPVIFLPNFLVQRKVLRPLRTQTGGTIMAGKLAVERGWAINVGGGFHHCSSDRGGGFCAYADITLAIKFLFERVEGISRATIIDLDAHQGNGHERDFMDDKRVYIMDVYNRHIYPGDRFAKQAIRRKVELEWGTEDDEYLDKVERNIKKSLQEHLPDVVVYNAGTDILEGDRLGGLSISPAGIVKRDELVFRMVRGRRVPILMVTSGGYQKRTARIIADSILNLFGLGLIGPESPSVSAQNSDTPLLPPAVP
How it is done:
as §1, §2, §3

A further experiment addresses HDAC1 (Homo sapiens, UniProt Q13547). The procedure:
as §1, §2, §3

The next experiment concerns the target T2, HDAC7 (Homo sapiens, UniProt Q8WUI4).
T2 sequence (Q8WUI4 1-952): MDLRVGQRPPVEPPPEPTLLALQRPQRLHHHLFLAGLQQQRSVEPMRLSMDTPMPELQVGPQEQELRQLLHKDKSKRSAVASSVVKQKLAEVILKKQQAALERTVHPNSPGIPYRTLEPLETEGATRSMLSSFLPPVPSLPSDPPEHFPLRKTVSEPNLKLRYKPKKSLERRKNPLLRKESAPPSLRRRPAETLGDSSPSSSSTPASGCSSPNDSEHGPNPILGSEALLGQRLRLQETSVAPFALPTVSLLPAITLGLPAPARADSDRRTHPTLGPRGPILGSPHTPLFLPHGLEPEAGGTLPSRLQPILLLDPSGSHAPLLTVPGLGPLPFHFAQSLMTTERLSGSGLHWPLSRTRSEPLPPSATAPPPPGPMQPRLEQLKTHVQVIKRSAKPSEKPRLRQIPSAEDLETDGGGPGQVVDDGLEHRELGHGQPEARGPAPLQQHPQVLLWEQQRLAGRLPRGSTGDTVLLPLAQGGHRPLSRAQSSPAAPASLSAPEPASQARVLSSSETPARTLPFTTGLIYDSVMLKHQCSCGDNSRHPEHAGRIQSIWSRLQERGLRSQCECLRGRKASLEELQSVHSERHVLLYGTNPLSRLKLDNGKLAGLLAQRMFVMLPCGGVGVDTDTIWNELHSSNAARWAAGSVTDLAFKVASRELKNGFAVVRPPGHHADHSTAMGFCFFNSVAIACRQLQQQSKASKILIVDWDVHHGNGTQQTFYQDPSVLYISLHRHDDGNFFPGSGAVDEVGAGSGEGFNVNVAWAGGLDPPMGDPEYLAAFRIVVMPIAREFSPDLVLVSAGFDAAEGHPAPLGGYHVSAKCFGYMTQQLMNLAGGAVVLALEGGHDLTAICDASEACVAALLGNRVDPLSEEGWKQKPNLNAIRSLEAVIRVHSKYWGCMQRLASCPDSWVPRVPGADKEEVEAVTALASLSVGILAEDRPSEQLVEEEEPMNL
To be noted: for inhibition at 100 µM: read-out: Percentage Inhibition HDAC7. The procedure:
as §1, §2, §3

The target in another experiment is HDAC5 (Homo sapiens, UniProt Q9UQL6). The procedure:
as §1, §2, §3

For another experiment, the target named is HDAC4 (Homo sapiens, UniProt P56524). To be noted: for inhibition at 100 µM: read-out: Percentage Inhibition HDAC4. How it is done: as §1, §2, §3
HDAC4, sequence (P56524 whole entry): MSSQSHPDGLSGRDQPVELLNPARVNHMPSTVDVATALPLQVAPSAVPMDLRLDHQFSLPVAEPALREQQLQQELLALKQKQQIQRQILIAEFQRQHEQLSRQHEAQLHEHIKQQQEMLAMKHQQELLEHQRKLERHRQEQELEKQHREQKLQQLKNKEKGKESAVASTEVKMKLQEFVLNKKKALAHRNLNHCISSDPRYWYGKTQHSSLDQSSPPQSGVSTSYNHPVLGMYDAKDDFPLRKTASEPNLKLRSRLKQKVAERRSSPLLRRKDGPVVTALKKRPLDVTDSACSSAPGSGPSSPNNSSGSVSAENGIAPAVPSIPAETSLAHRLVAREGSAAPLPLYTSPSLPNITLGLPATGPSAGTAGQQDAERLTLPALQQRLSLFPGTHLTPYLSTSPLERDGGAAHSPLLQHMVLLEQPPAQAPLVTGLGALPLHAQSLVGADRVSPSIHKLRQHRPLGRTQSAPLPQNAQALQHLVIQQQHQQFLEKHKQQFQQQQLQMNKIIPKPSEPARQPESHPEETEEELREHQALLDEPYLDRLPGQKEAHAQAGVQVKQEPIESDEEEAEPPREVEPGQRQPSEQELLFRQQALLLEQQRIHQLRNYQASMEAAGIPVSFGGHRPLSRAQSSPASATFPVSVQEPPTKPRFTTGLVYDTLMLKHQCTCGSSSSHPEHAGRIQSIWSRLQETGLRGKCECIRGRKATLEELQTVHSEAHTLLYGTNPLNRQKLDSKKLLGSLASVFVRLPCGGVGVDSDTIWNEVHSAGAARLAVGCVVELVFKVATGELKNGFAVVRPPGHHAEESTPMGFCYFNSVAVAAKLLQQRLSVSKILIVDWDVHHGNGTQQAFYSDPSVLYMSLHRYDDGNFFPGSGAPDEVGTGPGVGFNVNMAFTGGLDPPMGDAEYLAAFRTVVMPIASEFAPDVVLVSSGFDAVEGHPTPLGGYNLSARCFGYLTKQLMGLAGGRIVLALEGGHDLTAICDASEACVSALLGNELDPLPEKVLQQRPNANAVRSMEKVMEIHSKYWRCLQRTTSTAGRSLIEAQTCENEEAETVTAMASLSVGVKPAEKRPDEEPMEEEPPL

HDAC9, sequence (Q9UKV0 whole entry): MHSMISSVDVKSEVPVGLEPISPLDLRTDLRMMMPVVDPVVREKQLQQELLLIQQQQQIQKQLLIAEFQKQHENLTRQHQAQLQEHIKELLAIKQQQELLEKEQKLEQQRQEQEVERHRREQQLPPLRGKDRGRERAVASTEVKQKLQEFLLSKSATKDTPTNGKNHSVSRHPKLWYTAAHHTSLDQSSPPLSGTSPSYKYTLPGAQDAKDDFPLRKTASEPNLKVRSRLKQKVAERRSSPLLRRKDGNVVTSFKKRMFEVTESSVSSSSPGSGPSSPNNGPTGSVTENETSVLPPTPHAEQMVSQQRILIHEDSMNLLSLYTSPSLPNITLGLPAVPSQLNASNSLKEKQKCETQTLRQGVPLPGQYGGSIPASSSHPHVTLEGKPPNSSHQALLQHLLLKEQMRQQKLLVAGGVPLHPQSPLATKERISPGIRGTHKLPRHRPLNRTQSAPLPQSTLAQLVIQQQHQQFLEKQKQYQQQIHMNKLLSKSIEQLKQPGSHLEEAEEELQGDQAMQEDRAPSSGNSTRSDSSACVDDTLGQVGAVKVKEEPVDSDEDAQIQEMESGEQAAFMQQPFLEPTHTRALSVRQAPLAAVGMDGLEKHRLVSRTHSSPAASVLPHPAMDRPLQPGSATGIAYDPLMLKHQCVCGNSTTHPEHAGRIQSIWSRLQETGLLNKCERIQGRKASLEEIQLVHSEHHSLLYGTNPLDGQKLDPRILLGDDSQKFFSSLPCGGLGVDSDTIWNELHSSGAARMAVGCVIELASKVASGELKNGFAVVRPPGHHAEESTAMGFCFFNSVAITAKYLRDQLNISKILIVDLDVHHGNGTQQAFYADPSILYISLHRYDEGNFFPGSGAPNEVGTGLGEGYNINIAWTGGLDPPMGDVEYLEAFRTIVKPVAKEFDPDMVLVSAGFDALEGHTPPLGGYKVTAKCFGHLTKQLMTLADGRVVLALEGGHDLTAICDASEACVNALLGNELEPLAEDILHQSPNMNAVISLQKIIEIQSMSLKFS
HDAC5, sequence (Q9UQL6 whole entry): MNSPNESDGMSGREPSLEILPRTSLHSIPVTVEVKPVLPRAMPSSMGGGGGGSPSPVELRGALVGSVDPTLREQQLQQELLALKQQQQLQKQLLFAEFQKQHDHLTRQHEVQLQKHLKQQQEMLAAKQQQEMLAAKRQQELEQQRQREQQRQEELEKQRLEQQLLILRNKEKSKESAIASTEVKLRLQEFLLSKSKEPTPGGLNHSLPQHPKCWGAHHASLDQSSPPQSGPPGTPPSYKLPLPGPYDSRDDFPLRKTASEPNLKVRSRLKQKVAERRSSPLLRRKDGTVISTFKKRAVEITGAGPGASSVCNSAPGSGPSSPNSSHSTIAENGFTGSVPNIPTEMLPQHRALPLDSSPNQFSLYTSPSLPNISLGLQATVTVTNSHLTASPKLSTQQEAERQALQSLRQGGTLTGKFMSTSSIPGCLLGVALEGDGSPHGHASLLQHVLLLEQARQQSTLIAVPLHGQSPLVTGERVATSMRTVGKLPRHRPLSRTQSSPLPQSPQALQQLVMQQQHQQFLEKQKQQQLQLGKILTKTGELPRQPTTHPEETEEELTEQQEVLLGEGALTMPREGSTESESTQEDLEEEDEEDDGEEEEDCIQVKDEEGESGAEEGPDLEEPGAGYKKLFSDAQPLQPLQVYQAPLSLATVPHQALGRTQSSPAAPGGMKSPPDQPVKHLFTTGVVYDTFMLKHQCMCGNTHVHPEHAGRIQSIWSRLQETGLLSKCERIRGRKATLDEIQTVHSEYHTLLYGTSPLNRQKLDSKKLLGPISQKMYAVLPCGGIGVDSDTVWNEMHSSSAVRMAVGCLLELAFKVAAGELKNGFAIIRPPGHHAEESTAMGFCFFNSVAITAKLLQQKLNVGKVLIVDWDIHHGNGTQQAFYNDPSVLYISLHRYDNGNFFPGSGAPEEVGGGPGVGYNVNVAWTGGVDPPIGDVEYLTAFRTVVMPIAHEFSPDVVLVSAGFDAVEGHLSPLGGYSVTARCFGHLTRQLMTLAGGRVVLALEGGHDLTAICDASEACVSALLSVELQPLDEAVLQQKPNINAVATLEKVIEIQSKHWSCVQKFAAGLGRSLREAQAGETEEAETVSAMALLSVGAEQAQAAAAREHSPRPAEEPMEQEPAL
HDAC1, sequence (Q13547 whole entry): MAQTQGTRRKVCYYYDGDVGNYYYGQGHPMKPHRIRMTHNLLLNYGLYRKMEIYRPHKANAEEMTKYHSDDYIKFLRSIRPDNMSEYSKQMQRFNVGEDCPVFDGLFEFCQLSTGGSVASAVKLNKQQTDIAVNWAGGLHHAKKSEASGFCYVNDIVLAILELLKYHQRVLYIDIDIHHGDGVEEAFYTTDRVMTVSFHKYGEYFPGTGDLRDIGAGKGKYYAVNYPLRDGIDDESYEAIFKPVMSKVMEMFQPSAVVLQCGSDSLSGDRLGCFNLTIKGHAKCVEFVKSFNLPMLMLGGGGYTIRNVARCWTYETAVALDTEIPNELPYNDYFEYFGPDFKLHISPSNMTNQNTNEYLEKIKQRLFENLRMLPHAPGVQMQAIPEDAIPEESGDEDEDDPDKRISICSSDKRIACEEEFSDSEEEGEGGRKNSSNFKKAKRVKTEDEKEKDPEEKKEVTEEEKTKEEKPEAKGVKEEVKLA

On to `C/C=C1\NC(=O)[C@H]2CSSCC/C=C/[C@H](CC(=O)N[C@H](C(C)C)C(=O)N2)OC(=O)[C@H](C(C)C)NC1=O` [FK228, romidepsin], for which the IC50 was > 100 µM against HDAC9; > 100 µM against HDAC11; 1.2 µM on HDAC1; > 100 µM against HDAC7; > 100 µM on HDAC5; > 100 µM against HDAC4. The inhibition at 100 µM at HDAC9 was < 17%; at HDAC11 (read-out: Percentage Inhibition HDAC11) it was < 17%; at HDAC7, < 17%; at HDAC5 (read-out: Percentage Inhibition HDAC5), 17%; at HDAC4, < 17%.
In the case of `Nc1ccccc1NC(=O)c1ccc(CNC(=O)OCc2cccnc2)cc1` [MS-275, entinostat], at HDAC11, the IC50 was > 100 µM.
With `O=C(CCCCCCC(=O)Nc1ccccc1)NO` [SAHA, suberanilohydroxamic acid], the inhibition at 100 µM on HDAC9 is 37%; on HDAC7 it was 27%; on HDAC4 it was 34%.

The term IC50 denotes the concentration that inhibits the measured activity by half. A higher IC50 goes with lower potency. In general, inhibition refers to the share of the control response that was lost under treatment.

For the origin of these results see patent US10953011B2, “Methods of treating virally associated cancers with histone deacetylase inhibitors” (priority 2019, dated 2021).
